Measurements as given in the supplement of paper PMC3493320.
pIC50: −log10 of the molar value.

Test system: NCI-H295R
Assay: IC50 (antiproliferative, ATP content)
Details: 48 h
In short: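 Adrenocortical carcinoma cells in 1536-well plates (1500 per well, serum-free DMEM plus ITS, overnight culture) were exposed for 48 h at 37 °C, 5% CO2 to pin-transferred compounds at 8 final concentrations ranging 0.6 nM to 46 µM. ATP content was then read as CellTiter-Glo luminescence and normalised to vehicle and positive-control wells. The IC50 came from logistic curve fits, and any compound lacking a concentration response was recorded as above the top dose.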

| pIC50 | Structure (SMILES) |
| --- | --- |
| < 4.34 | CCOC(=O)Cc1ccc(-c2ccccc2)cc1 |
| < 4.34 | Cc1ccc(C)c(OCCCC(C)(C)C(=O)O)c1 |
| < 4.34 | CN/C(=N\c1ccc(C2=NNC(=O)CC2C)cc1)NC#N (centres undefined) |
| < 4.34 | CC(=O)c1ccc(S(=O)(=O)NC(=O)NC2CCCCC2)cc1 |
| < 4.34 | NC(=O)N1c2ccccc2CC(=O)c2ccccc21 |
| < 4.34 | CO[C@H]1C[C@H](O[C@H]2[C@H](C)[C@@H](O[C@@H]3O[C@H](C)C[C@H](N(C)C)[C@H]3OC(C)=O)[C@@H](C)C[C@]3(CO3)C(=O)[C@H](C)[C@@H](OC(C)=O)[C@@H](C)[C@@H](C)OC(=O)[C@@H]2C)O[C@@H](C)[C@@H]1OC(C)=O |
| < 4.34 | O=C1c2ccccc2C(=O)C1c1ccc(F)cc1 |
| < 4.34 | CCOC(=O)[C@@](C)(N)Cc1ccc(O)c(O)c1.Cl |
| < 4.34 | S=P(N1CC1)(N1CC1)N1CC1 |
| < 4.34 | CO[C@@H]1[C@@H](O[C@@H]2O[C@H](C)[C@@H](O[C@H]3C[C@@](C)(O)[C@@H](O)[C@H](C)O3)[C@H](N(C)C)[C@H]2O)[C@@H](CC=O)C[C@@H](C)[C@@H](O[C@@H]2CC[C@H](N(C)C)[C@@H](C)O2)/C=C/C=C/C[C@@H](C)OC(=O)C[C@H]1O |
| < 4.34 | CCCCN1C[C@H](O)[C@@H](O)[C@H](O)[C@H]1CO |
| < 4.34 | O=C(O)c1cc(N=Nc2ccc(S(=O)(=O)Nc3ccccn3)cc2)ccc1O |
| < 4.34 | CC[N+](CC)(CC)CCOc1ccc(/C=C/c2ccccc2)cc1.[I-] |
| < 4.34 | C[C@H](CCC(=O)[O-])[C@H]1CC[C@H]2[C@@H]3CC[C@@H]4C[C@H](O)CC[C@]4(C)[C@H]3C[C@H](O)[C@]12C.[Na+] |
| < 4.34 | O=P(O)(O)O |
| < 4.34 | Nc1nccs1 |
| < 4.34 | O=C1CCC(N2C(=O)c3ccccc3C2=O)C(=O)N1 (centres undefined) |
| < 4.34 | CCc1ncnc2cc(OC)c(OC)cc12 |
| < 4.34 | CO[C@@H]1[C@H](OC(=O)/C=C/C=C/C=C/C=C/C(=O)O)CC[C@]2(CO2)[C@H]1[C@@]1(C)O[C@@H]1CC=C(C)C |
| < 4.34 | Cc1cc(C(=O)NNCc2ccccc2)no1 |
| < 4.34 | CC(=O)Nc1ccc(C=NNC(N)=S)cc1 |
| < 4.34 | C=C1C[C@H]2[C@@H]3C=C(C)C4=CC(=O)CC[C@]4(C)[C@H]3CC[C@]2(C)[C@@]1(OC(C)=O)C(C)=O |
| < 4.34 | CCn1cc(C(=O)O)c(=O)c2cc(F)c(N3CCNCC3)nc21 |

| pIC50 | Structure (SMILES) |
| --- | --- |
| < 4.34 | C[C@@H](CN(C)C)CN1c2ccccc2Sc2ccccc21.C[C@@H](CN(C)C)CN1c2ccccc2Sc2ccccc21.O=C(O)[C@@H](O)[C@@H](O)C(=O)O |
| < 4.34 | O=C([O-])CC(O)C(=O)[O-].[Na+].[Na+] (centres undefined) |
| < 4.34 | C1[C@@H]([C@H]([C@@H]([C@H]([N@]1CCO)CO)O)O)O |
| < 4.34 | Cl.c1ccc(CN(CC2=NCCN2)c2ccccc2)cc1 |
| < 4.34 | Cl.NCCO/C=C/[C@H](N)C(=O)O |
| < 4.34 | Cl.Clc1ccc(Cn2c(CN3CCCC3)nc3ccccc32)cc1 |
| < 4.34 | NS(=O)(=O)c1cc2c(cc1Cl)NC(C(Cl)Cl)NS2(=O)=O (centres undefined) |
| < 4.34 | O=C1NC(=O)[C@H]2[C@@H]1[C@@H]1C=C[C@H]2C1 |
| < 4.34 | F[C@]1([C@](C[C@@H]3C)([H])[C@@]4([H])[C@]([C@@](CC4)(O)[C@@](C)=O)(C)C[C@@H]1O)[C@](C=C2)(C)C3=CC2=O |
| < 4.34 | Cl.NCc1ccc(S(N)(=O)=O)cc1 |
| < 4.34 | Nc1ccc(C(=O)NCC(=O)O)cc1 |
| < 4.34 | Cc1ccnc2c1NC(=O)c1cccnc1N2C1CC1 |
| < 4.34 | C[C@H](C(=O)[O-])c1cccc(Oc2ccccc2)c1.C[C@H](C(=O)[O-])c1cccc(Oc2ccccc2)c1.O.O.[Ca+2] |
| < 4.34 | O=C(O)c1ccccc1C(=O)Nc1ccc(S(=O)(=O)Nc2nccs2)cc1 |
| < 4.34 | CN1c2c(O)nc(N)nc2NCC1CNc1ccc(C(=O)NC(CCC(=O)[O-])C(=O)[O-])cc1.[Na+].[Na+] (centres undefined) |
| < 4.34 | C#C[C@]1(O)CC[C@H]2[C@@H]3CCC4=CC(=O)CC[C@@H]4[C@H]3C(=C)C[C@@]21CC |
| < 4.34 | CNC(=C[N+](=O)[O-])NCCSCc1csc(CN(C)C)n1 |
| < 4.34 | CC(=O)O[C@H]1C[C@@]2(C)[C@@H](C[C@@H](O)[C@H]3[C@@]4(C)CC[C@@H](O)[C@@H](C)[C@@H]4CC[C@@]32C)/C1=C(\CCC=C(C)C)C(=O)[O-].[Na+] |
| < 4.34 | O=C(O)CNC(=O)c1ccccc1 |
| < 4.34 | CCCCC/C=C\C/C=C\CCCCCCCC(=O)O |
| < 4.34 | COc1cc(C)nc(-n2nc(C)cc2OC)n1 |
| < 4.34 | CCCCCCCCCCCCCCCCN |
| < 4.34 | Clc1ccccc1-c1nc(-c2ccncc2)no1 |

| pIC50 | Structure (SMILES) |
| --- | --- |
| < 4.34 | CCCCCCCCCCCCOS(=O)(=O)[O-].[Na+] |
| < 4.34 | O=C(SC[C@@H](C(N(C3)[C@@H](C[C@@H]3SC2=CC=CC=C2)[C@@](O)=O)=O)C)C1=CC=CC=C1 |
| < 4.34 | CCCCCCc1ccc(O)cc1O |
| < 4.34 | [O-][C@@]([C@@]13[C@@]([C@]2([H])OC(C)(C)OC[C@@]([H])2O3)([H])OC(C)(C)O1)=O.[Na+] |
| < 4.34 | O=C(c1cc2ccccc2o1)N1CCN(Cc2ccccc2)CC1 |
| < 4.34 | CCc1nnc(NS(=O)(=O)c2ccc(N)cc2)s1 |
| < 4.34 | N=C(N)NCCCC[C@@H]1NC(=O)CCSSC[C@@H](C(N)=O)NC(=O)[C@@H]2CCCN2C(=O)[C@H](Cc2c[nH]c3ccccc23)NC(=O)[C@H](CC(=O)O)NC(=O)CNC1=O |
| < 4.34 | OC[C@H]1OC([S][Au])[C@H](O)[C@@H](O)[C@@H]1O (some centres undefined) |
| < 4.34 | CC[C@H](C)[C@H](NC(=O)[C@H](Cc1ccccc1)NC(=O)[C@H](C)NC(=O)[C@H](CC(=O)O)NC(=O)[C@H](CCCCN)NC(=O)[C@H](CO)NC(=O)[C@@H]1CCCN1C(=O)[C@@H]1CCC(=O)N1)C(=O)NCC(=O)N[C@@H](CC(C)C)C(=O)N[C@@H](CCSC)C(N)=O |
| < 4.34 | Cn1cc(NC(=O)c2cc(NC(=O)c3cc(NC=O)cn3C)cn2C)cc1C(=O)NCCC(=N)N |
| < 4.34 | O=C1C(CCS(=O)c2ccccc2)C(=O)N(c2ccccc2)N1c1ccccc1 (centres undefined) |
| < 4.34 | CCOC(=O)C(CS)NCCNC(CS)C(=O)OCC.Cl.Cl (centres undefined) |
| < 4.34 | COc1c(N2C[C@@H]3CCCN[C@@H]3C2)c(F)cc2c(=O)c(C(=O)O)cn(C3CC3)c12.Cl |
| < 4.34 | Cc1cnc(C(=O)O)c[n+]1[O-] |
| < 4.34 | CC[C@H](C)C(=O)O[C@H]1C[C@H](O)C=C2C=C[C@H](C)[C@H](CC[C@@H](O)C[C@@H](O)CC(=O)[O-])[C@H]21.[Na+] |
| < 4.34 | C[N+](C)(C)CC[N+]1(C)Cc2c(Cl)c(Cl)c(Cl)c(Cl)c2C1.[Cl-].[Cl-] |
| < 4.34 | C[C@H]1C(=O)NC2=Nc3cccc(Cl)c3CN21 |
| < 4.34 | CC1CC(OC(=O)C(O)c2ccccc2)CC(C)(C)C1 (centres undefined) |
| < 4.34 | n\24c1c(CCN3[C@H]1[C@](/C=C/2C(=O)OCC)(CCC3)CC)c5c4cccc5 |
| < 4.34 | [Na+].[O-]Cl |
| < 4.34 | NCC1CCC(C(=O)O)CC1 (centres undefined) |
| < 4.34 | CC(=O)N[C@@H](Cc1ccc(O)cc1)C(=O)O |

| Structure (SMILES) | pIC50 |
| --- | --- |
| CC(C)(C)NCC(O)c1cc(Cl)c(N)c(Cl)c1 (centres undefined) | < 4.34 |
| ClC4=CC3=[C@@](C=C4O)[C@H]2C1=CC=CC=C1CC[C@@H]2N(C)CC3 | < 4.34 |
| C#CC(C)(O)CC (centres undefined) | < 4.34 |
| CN1[C@@H]2CC[C@H]1C[C@@H](OC(c1ccccc1)c1ccccc1)C2.CS(=O)(=O)O | < 4.34 |
| C=CC[N@@+]1(C)CC[C@]23c4c5ccc(O)c4O[C@H]2C(=O)CC[C@@]3(O)[C@H]1C5.[I-] | < 4.34 |
| CCC(COC(=O)c1cc(OC)c(OC)c(OC)c1)(c1ccccc1)N(C)C.O=C(O)/C=C\C(=O)O (centres undefined) | < 4.34 |
| CO/N=C(\C(=O)N[C@@H]1C(=O)N2C(C(=O)[O-])=C(C[n+]3cccc4c3CCC4)CS[C@H]12)c1csc(N)n1.O=S(=O)(O)O | < 4.34 |
| Br.CN1[C@@H]2C[C@@H](OC(=O)[C@H](CO)c3ccccc3)C[C@H]1[C@@H]1O[C@@H]12.O.O.O | < 4.34 |
| O=[N+]([O-])C(Br)(CO)CO | < 4.34 |
| CN(C)C(=O)Oc1cc(OC(=O)N(C)C)cc(C(O)CNC(C)(C)C)c1.Cl (centres undefined) | < 4.34 |
| CN1C(=O)COc2c(C(=O)NC3CN4CCC3CC4)cc(Cl)cc21 (centres undefined) | < 4.34 |
| Oc1c(Br)cc(Br)cc1Br | < 4.34 |
| ClC1C(Cl)C(Cl)C(Cl)C(Cl)C1Cl (centres undefined) | < 4.34 |
| C=CCOC(Cn1ccnc1)c1ccc(Cl)cc1Cl.O=S(=O)(O)O (centres undefined) | < 4.34 |
| O=C(O)COc1ccccc1 | < 4.34 |
| CC(=O)c1ccc2c(c1)N(CCCN(C)C)c1ccccc1S2.O=C(O)/C=C/C(=O)O | < 4.34 |
| CCC(C(N)=O)N1CCCC1=O (centres undefined) | < 4.34 |
| CC(C)N(CCC(C(N)=O)(c1ccccc1)c1ccccn1)C(C)C (centres undefined) | < 4.34 |
| CCCC(C)C1(CC)C(=O)N=C(O)NC1=O (centres undefined) | < 4.34 |
| N=C(N)N1CCc2ccccc2C1.N=C(N)N1CCc2ccccc2C1.O=S(=O)(O)O | < 4.34 |
| [O-][N+](=Nc1ccccc1)c1ccccc1 | < 4.34 |
| O=C3/C=C4/CC[C@@H]2[C@H](CC[C@]1(C)C(=O)CC[C@H]12)[C@@]4(C)CC3 | < 4.34 |
| CC(CCc1ccccc1)NC(C)C(O)c1ccc(O)cc1 (centres undefined) | < 4.34 |
| CO/N=C(\C(=O)N[C@@H]1C(=O)N2C(C(=O)O)=C(Cn3ccc(=N)n3CCO)CS[C@H]12)c1csc(N)n1.O=S(=O)(O)O | < 4.34 |
| CC1OC(C)OC(C)O1 (centres undefined) | < 4.34 |
| C=CCN(C1=NCCN1)c1c(Cl)cccc1Cl | < 4.34 |
